Results taken from patent US9776990B2, “Isoindolone derivatives” (AbbVie Inc., priority 2012, dated 2017).
Marks after values point to notes of the source that are not given here.

Assays:
RPMI-8226 = assay: Proliferation panel assay, RPMI-8226; assay type: cell-based; details: Homo sapiens, 120 h; Multiple Myeloma, RPMI-8226, 5 days; read-out: Cellular Proliferation EC50
Method: (§1) The impact of compounds of the Examples on cancer cell proliferation was determined using the breast cancer cell line MX-1 (ATCC) in a 3-day proliferation assay. MX-1 cells were maintained in RPMI supplemented with 10% FBS at 37 C.° and an atmosphere of 5% CO2. For compound testing, MX-1 cells were plated in 96-well black bottom plates at a density of 5000 cells/well in 90 μl of culture media and incubated at 37° overnight to allow cell adhesion and spreading. Compound dilution series were prepared in DMSO via a 3-fold serial dilution from 3 mM to 0.1 μM. […]
(§2) Luminescence readings from the Cell Titer Glo assay were normalized to the DMSO treated cells and analyzed using the GraphPad Prism software with sigmoidal curve fitting to obtain EC50s. The minimum significant ratio (MSR) was determined to evaluate assay reproducibility (Eastwood et al., (2006) J Biomol Screen, 11: 253-261). The overall MSR was determined to be 2.1 and a moving MSR (last six run MSR overtime) has been <2.
(§3) The compound of Example 40 was tested for its impact on proliferation of a panel of cancer cell line types (with specific cell lines tested) as set out in (Table 2). […] Cell proliferation data were analyzed as described above in the MX-1 proliferation assay to obtain the EC50 for the compounds reported in Table 2.

Ramos = assay: Proliferation panel assay, Ramos; assay type: cell-based; details: Homo sapiens, 120 h, NHL, 5 days, read-out: Cellular Proliferation EC50
Method: as §1, §2, §3

H1299 = assay: Proliferation panel assay, H1299; assay type: cell-based; details: Homo sapiens, NCI-H1299, 120 h; NSCLC, H1299, 5 days; read-out: Cellular Proliferation EC50
Method: as §1, §2, §3

HPAC = assay: Proliferation panel assay, HPAC; assay type: cell-based; details: Homo sapiens, 120 h, Pancreas, 5 days, read-out: Cellular Proliferation EC50
Method: as §1, §2, §3

[1] = tested on: Ramos human B cell lymphoma cancer xenograft; assay: Xenograft tumor growth inhibition assay, Ramos; assay type: in vivo, mice; details: 100 mg/kg/day PO
Method: The effect of the compound of Example 40 to inhibit the growth of Ramos, OPM-2, MX-1, MV4-11, and HT1080 xenograft tumors was evaluated. Briefly, 0.5×10^6 human cancer cells (HT1080), 1×10^6 human cancer cells (Ramos), 5×10^6 human cancer cells (OPM-2, MV4-11) or 1:10 tumor brie (MX-1) (in S-MEM (MEM, Suspension, no Calcium, no Glutamine)) (Life Technologies Corporation) were inoculated subcutaneously into the right hind flank of female SCID or SCID-beige (MV4-11, HT1080) mice (Charles Rivers Labs) on study day 0. Compound was formulated in 2% EtOH, 5% Tween-80, 20% PEG-400, 73% HPMC (Ramos, OPM-2 and MX-1) or 5% DMSO, 5% EtOH, 30% PEG400, 60% Phosal 53 (MV4-11, HT1080). Administration of compound was initiated at the time of size match on day 8 (HT1080), day 17 (MX-1), or day 18 (Ramos, MV4-11, OPM-2). The tumors were measured by a pair of calipers twice a week starting at the time of size match and tumor volumes were calculated according to the formula V=L×W^2/2 (V: volume, mm^3; L: length, mm. W: width, m) Tumor volume was measured for the duration of the experiment until the mean tumor volume in each group reached an endpoint of >1000 mm^3.

[2] = tested on: LPS induced IL-6 production; assay: LPS (lipopolysaccharide) induced IL-6 production mouse assay; assay type: in vivo; details: mice, one hour before LPS, serum 2 hours after LPS
Method: Compounds of the Examples listed in Table 8 were assayed for their ability to inhibit LPS (lipopolysaccharide) induced IL-6 production in mice. Severe combined immunodeficient female mice (8 per group) received an intraperitoneal challenge of lipopolysaccharide (2.5 mg/kg, L2630 E. coli 0111:B4) one hour after oral administration (PO) or intraperitoneal administration (IP) of compounds in a solution of 2% ethanol, 5% Tween-80, 20% PEG-400 and 73% (0.2% hydroxypropylmethylcellulose in water). Mice were euthanized 2 hours after lipopolysaccharide injection, blood was removed by cardiac puncture, and then the serum harvested from the blood samples was frozen at −80° C. On the day of the assay the serum samples were brought to room temperature and then diluted 1:20 in phosphate-buffered saline containing 2% bovine serum albumin. Interleukin-6 measurements were performed using a cytokine assay from Meso Scale Discovery (Gaithersburg, Md.) for mouse serum analysis according to the manufacturer's protocol and read on a SECTOR Imager 6000 (Meso Scale Discovery, Gaithersburg, Md.) instrument. Statistical analysis was performed using Prism software (version 5.0) incorporating Dunnett's one way ANOVA. The IL-6 mean and standard deviation of the group of vehicle treated animals were compared with the IL-6 mean and standard deviation of the group treated with drug. A p value <0.05 means that there is less than a 5% probability that the mean values in the two groups are equal.

`Cc1[nH]c(-c2cc(NS(C)(=O)=O)ccc2Oc2ccccc2)c2c1C(=O)CCC2` [Example 40, N-[3-(3-methyl-4-oxo-4,5,6,7-tetrahydro-2H-isoindol-1-yl)-4-phenoxyphenyl]methanesulfonamide] showed an EC50 (RPMI-8226) of 94 nM, an EC50 (Ramos) of 340 nM and an EC50 (H1299) of 360 nM. The EC50 (HPAC) was 290 nM, the “% TGI (tumor growth inhibition)” value ([1]; BID (5on 3off) x 2, based on day 31) was 35*** % and the “% TGD (tumor growth delay)” value ([1]; BID (5on 3off) x 2, endpoint 1000 mm^3) was 40** %. The “% TGI (tumor growth inhibition)” value ([1]; QDx14, based on day 31) was 30* %, the “% TGD (tumor growth delay)” value ([1]; QDx14, endpoint 1000 mm^3) was 40* % and the “% inhibition of LPS induced IL-6 production” value (“% inhibition” below) ([2]; 3 mg/kg (PO)) was 28.7 at 3 mg/kg (PO) %. The “% inhibition” value ([2]; 10 mg/kg (PO)) was 52.4 at 10 mg/kg (PO) %, the “% inhibition” value ([2]; 30 mg/kg (PO)) was 72.7 at 30 mg/kg (PO) % and the “% inhibition” value ([2]; 50 mg/kg (IP)) was 84.7 at 50 mg/kg (IP) %.
